The record followed here is patent US11987588B2, “Modulators of the beta-3 adrenergic receptor useful for the treatment or prevention of heart failure and disorders related thereto” (Arena Pharmaceuticals, Inc., priority 2017, dated 2024).

For the assay, the target named is Beta-3 Adrenergic Receptor (Homo sapiens (Human), UniProt P13945). The experiment in a line: Homogeneous Time-Resolved Fluorescence (HTRF) cAMP antagonist assay, IC50 determination. The format is cell-based. The conditions noted are these: CHO-K1 cells stably expressing recombinant receptor, isoproterenol at EC90. The method in brief: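 Antagonist mode: isoproterenol at its predetermined EC90 added after compound to recombinant CHO-K1 cells in IBMX-containing PBS, 1 h, room temperature. Compounds tested as 5-fold, 10-point dilutions, top final typically 10 or 100 μM. HTRF signal converted to cAMP via standard curve, giving IC50.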
Beta-3 Adrenergic Receptor, sequence (P13945 whole entry, species assumed): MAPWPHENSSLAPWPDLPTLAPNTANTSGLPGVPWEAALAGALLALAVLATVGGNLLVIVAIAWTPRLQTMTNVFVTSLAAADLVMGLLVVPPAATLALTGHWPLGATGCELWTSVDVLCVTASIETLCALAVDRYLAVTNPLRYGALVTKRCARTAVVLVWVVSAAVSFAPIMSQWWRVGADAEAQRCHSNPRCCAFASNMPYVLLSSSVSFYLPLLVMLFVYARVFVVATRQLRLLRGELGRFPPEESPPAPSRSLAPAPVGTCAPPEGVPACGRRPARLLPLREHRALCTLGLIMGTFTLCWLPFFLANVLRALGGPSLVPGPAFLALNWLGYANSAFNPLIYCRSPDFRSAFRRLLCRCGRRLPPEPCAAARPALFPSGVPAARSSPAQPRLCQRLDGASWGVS
As to `CNS(=O)(=O)c1cccc(OC[C@@H](O)CN[C@H]2COC3(CCN(S(=O)(=O)c4cnc5nc(C)[nH]c5c4)CC3)C2)c1` [Compound 486, 3-((S)-2-hydroxy-3-((R)-8-(2-methyl-1H-imidazo[4,5-b]pyridin-6-ylsulfonyl)-1-oxa-8-azaspiro[4.5]decan-3-ylamino)propoxy)-N-methylbenzenesulfonamide], the half-maximal inhibitory concentration (IC50) came out at 41.5 nM.

Turning to `CNS(=O)(=O)c1cccc(OC[C@@H](O)CN[C@H]2COC3(CCN(S(=O)(=O)c4cnc5c(c4)N(C)CCCO5)CC3)C2)c1` [Compound 487, 3-((S)-2-hydroxy-3-((R)-8-(1-methyl-1,2,3,4-tetrahydropyrido[2,3-b][1,4]oxazepin-8-ylsulfonyl)-1-oxa-8-azaspiro[4.5]decan-3-ylamino)propoxy)-N-methylbenzenesulfonamide], the concentration for half-maximal inhibition (IC50) amounted to 25.2 nM. For the compound `CNS(=O)(=O)c1cccc(OC[C@@H](O)CN[C@H]2COC3(CCN(S(=O)(=O)c4cnc5c(c4)COCC5)CC3)C2)c1` [Compound 488, 3-((S)-3-((R)-8-(7,8-dihydro-5H-pyrano[4,3-b]pyridin-3-ylsulfonyl)-1-oxa-8-azaspiro[4.5]decan-3-ylamino)-2-hydroxypropoxy)-N-methylbenzenesulfonamide], the concentration for half-maximal inhibition (IC50) is 38.1 nM. With `CNS(=O)(=O)c1cccc(OC[C@@H](O)CN[C@H]2COC3(CCN(S(=O)(=O)c4cnc5nc(N)ccc5c4)CC3)C2)c1` [Compound 489, 3-((S)-3-((R)-8-(7-amino-1,8-naphthyridin-3-ylsulfonyl)-1-oxa-8-azaspiro[4.5]decan-3-ylamino)-2-hydroxypropoxy)-N-methylbenzenesulfonamide] the figure was 33.9 nM; with `CNS(=O)(=O)c1cccc(OC[C@@H](O)CN[C@H]2COC3(CCN(S(=O)(=O)c4cnc5[nH]ncc5c4)CC3)C2)c1` [Compound 490, 3-((S)-3-((R)-8-(1H-pyrazolo[3,4-b]pyridin-5-ylsulfonyl)-1-oxa-8-azaspiro[4.5]decan-3-ylamino)-2-hydroxypropoxy)-N-methylbenzenesulfonamide], 37.3 nM; with `CNS(=O)(=O)c1cccc(OC[C@@H](O)CN[C@H]2COC3(CCN(S(=O)(=O)c4cnc5c(c4)CCC5)CC3)C2)c1` [Compound 491, 3-((S)-3-((R)-8-(6,7-dihydro-5H-cyclopenta[b]pyridin-3-ylsulfonyl)-1-oxa-8-azaspiro[4.5]decan-3-ylamino)-2-hydroxypropoxy)-N-methylbenzenesulfonamide], 24.4 nM. Turning to `CCn1cc(S(=O)(=O)N2CCC3(CC2)C[C@@H](NC[C@H](O)COc2cccc(S(=O)(=O)NC)c2)CO3)c(=O)c2ccccc21` [Compound 492, 3-((S)-3-((R)-8-(1-ethyl-4-oxo-1,4-dihydroquinolin-3-ylsulfonyl)-1-oxa-8-azaspiro[4.5]decan-3-ylamino)-2-hydroxypropoxy)-N-methylbenzenesulfonamide], the IC50 was determined as 33 nM. For `CNS(=O)(=O)c1cccc(OC[C@@H](O)CN[C@H]2COC3(CCN(S(=O)(=O)c4cnc5[nH]cc(C#N)c5c4)CC3)C2)c1` [Compound 493, 3-((S)-3-((R)-8-(3-cyano-1H-pyrrolo[2,3-b]pyridin-5-ylsulfonyl)-1-oxa-8-azaspiro[4.5]decan-3-ylamino)-2-hydroxypropoxy)-N-methylbenzenesulfonamide], the IC50 amounted to 10.6 nM. In the case of `CNS(=O)(=O)c1cccc(OC[C@@H](O)CN[C@H]2COC3(CCN(S(=O)(=O)c4cn(C)c5ccccc5c4=O)CC3)C2)c1` [Compound 494, 3-((S)-2-hydroxy-3-((R)-8-(1-methyl-4-oxo-1,4-dihydroquinolin-3-ylsulfonyl)-1-oxa-8-azaspiro[4.5]decan-3-ylamino)propoxy)-N-methylbenzenesulfonamide], the 50% inhibitory concentration (IC50) was found to be 62.4 nM. Regarding `CNS(=O)(=O)c1cccc(OC[C@@H](O)CN[C@H]2COC3(CCN(S(=O)(=O)c4cnc5nc[nH]c5c4)CC3)C2)c1` [Compound 495, 3-((S)-3-((R)-8-(1H-imidazo[4,5-b]pyridin-6-ylsulfonyl)-1-oxa-8-azaspiro[4.5]decan-3-ylamino)-2-hydroxypropoxy)-N-methylbenzenesulfonamide], the half-maximal inhibitory concentration (IC50) came out at 50.6 nM. With `CNS(=O)(=O)c1cccc(OC[C@@H](O)CN[C@H]2COC3(CCN(S(=O)(=O)c4ccc[n+]([O-])c4)CC3)C2)c1` [Compound 496, 3-((R)-3-((S)-2-hydroxy-3-(3-(N-methylsulfamoyl)phenoxy)propylamino)-1-oxa-8-azaspiro[4.5]decan-8-ylsulfonyl)pyridine 1-oxide], the half-inhibitory concentration (IC50) came to 541 nM. With `CNS(=O)(=O)c1cccc(OC[C@@H](O)CN[C@H]2COC3(CCN(S(=O)(=O)c4cnc5[nH]nc(C)c5c4)CC3)C2)c1` [Compound 497, 3-((S)-2-hydroxy-3-((R)-8-(3-methyl-1H-pyrazolo[3,4-b]pyridin-5-ylsulfonyl)-1-oxa-8-azaspiro[4.5]decan-3-ylamino)propoxy)-N-methylbenzenesulfonamide] the figure was 16.4 nM; with `CNS(=O)(=O)c1cccc(OC[C@@H](O)CN[C@H]2COC3(CCN(S(=O)(=O)c4ccc5c(c4)C(=O)C(=O)N5)CC3)C2)c1` [Compound 498, 3-((S)-3-((R)-8-(2,3-dioxoindolin-5-ylsulfonyl)-1-oxa-8-azaspiro[4.5]decan-3-ylamino)-2-hydroxypropoxy)-N-methylbenzenesulfonamide], 117 nM; with `CNS(=O)(=O)c1cccc(OC[C@@H](O)CN[C@H]2COC3(CCN(S(=O)(=O)c4ccc5[nH]c(=O)[nH]c5c4)CC3)C2)c1` [Compound 499, 3-((S)-2-hydroxy-3-((R)-8-(2-oxo-2,3-dihydro-1H-benzo[d]imidazol-5-ylsulfonyl)-1-oxa-8-azaspiro[4.5]decan-3-ylamino)propoxy)-N-methylbenzenesulfonamide], 73 nM. With `CNS(=O)(=O)c1cccc(OC[C@@H](O)CN[C@H]2COC3(CCN(S(=O)(=O)c4cnc5c(c4)OCCN5)CC3)C2)c1` [Compound 500, 3-((S)-3-((R)-8-(3,4-dihydro-2H-pyrido[3,2-b][1,4]oxazin-7-ylsulfonyl)-1-oxa-8-azaspiro[4.5]decan-3-ylamino)-2-hydroxypropoxy)-N-methylbenzenesulfonamide], the half-maximal inhibitory concentration (IC50) amounted to 28.8 nM. The result for `CNS(=O)(=O)c1cccc(OC[C@@H](O)CN[C@H]2COC3(CCN(S(=O)(=O)c4ccc5[nH]c(C)nc5c4)CC3)C2)c1` [Compound 501, 3-((S)-2-hydroxy-3-((R)-8-(2-methyl-1H-benzo[d]imidazol-5-ylsulfonyl)-1-oxa-8-azaspiro[4.5]decan-3-ylamino)propoxy)-N-methylbenzenesulfonamide] reads 22.9 nM. The result for `CNS(=O)(=O)c1cccc(OC[C@@H](O)CN[C@H]2COC3(CCN(S(=O)(=O)c4cnc5cn[nH]c5c4)CC3)C2)c1` [Compound 502, 3-((S)-3-((R)-8-(1H-pyrazolo[4,3-b]pyridin-6-ylsulfonyl)-1-oxa-8-azaspiro[4.5]decan-3-ylamino)-2-hydroxypropoxy)-N-methylbenzenesulfonamide] reads 18.9 nM. Regarding `CNS(=O)(=O)c1cccc(OC[C@@H](O)CN[C@H]2COC3(CCN(S(=O)(=O)c4ccc5[nH]cnc5c4)CC3)C2)c1` [Compound 503, 3-((S)-3-((R)-8-(1H-benzo[d]imidazol-5-ylsulfonyl)-1-oxa-8-azaspiro[4.5]decan-3-ylamino)-2-hydroxypropoxy)-N-methylbenzenesulfonamide], the IC50 turned out to be 28.9 nM. With `CNS(=O)(=O)c1cccc(OC[C@@H](O)CN[C@H]2COC3(CCN(S(=O)(=O)c4cnc5c(c4)CCO5)CC3)C2)c1` [Compound 504, 3-((S)-3-((R)-8-(2,3-dihydrofuro[2,3-b]pyridin-5-ylsulfonyl)-1-oxa-8-azaspiro[4.5]decan-3-ylamino)-2-hydroxypropoxy)-N-methylbenzenesulfonamide] the figure was 217 nM. For `CNS(=O)(=O)c1cccc(OC[C@@H](O)CN[C@H]2COC3(CCN(S(=O)(=O)c4cnc5[nH]ccc5c4)CC3)C2)c1` [Compound 506, 3-((S)-3-((R)-8-(1H-pyrrolo[2,3-b]pyridin-5-ylsulfonyl)-1-oxa-8-azaspiro[4.5]decan-3-ylamino)-2-hydroxypropoxy)-N-methylbenzenesulfonamide], the IC50 came out at 11.9 nM. As for `CNS(=O)(=O)c1cccc(OC[C@@H](O)CN[C@H]2COC3(CCN(S(=O)(=O)c4c[nH]c5ncccc45)CC3)C2)c1` [Compound 507, 3-((S)-3-((R)-8-(1H-pyrrolo[2,3-b]pyridin-3-ylsulfonyl)-1-oxa-8-azaspiro[4.5]decan-3-ylamino)-2-hydroxypropoxy)-N-methylbenzenesulfonamide], the IC50 was 58.8 nM. For `CNS(=O)(=O)c1cccc(OC[C@@H](O)CN[C@H]2COC3(CCN(S(=O)(=O)c4ccc5[nH]ncc5c4OC)CC3)C2)c1` [Compound 508, 3-((S)-2-hydroxy-3-((R)-8-(4-methoxy-1H-indazol-5-ylsulfonyl)-1-oxa-8-azaspiro[4.5]decan-3-ylamino)propoxy)-N-methylbenzenesulfonamide], the IC50 came to 211 nM.

Consider `CNS(=O)(=O)c1cccc(OC[C@@H](O)CN[C@H]2COC3(CCN(S(=O)(=O)c4cnc5[nH]cc(C(F)(F)F)c5c4)CC3)C2)c1` [Compound 509, 3-((S)-2-hydroxy-3-((R)-8-(3-(trifluoromethyl)-1H-pyrrolo[2,3-b]pyridin-5-ylsulfonyl)-1-oxa-8-azaspiro[4.5]decan-3-ylamino)propoxy)-N-methylbenzenesulfonamide], for which the IC50 was 6.95 nM.

As for `CNS(=O)(=O)c1cccc(OC[C@@H](O)CN[C@H]2COC3(CCN(S(=O)(=O)c4cnc5[nH]cc(Cl)c5c4)CC3)C2)c1` [Compound 510, 3-((S)-3-((R)-8-(3-chloro-1H-pyrrolo[2,3-b]pyridin-5-ylsulfonyl)-1-oxa-8-azaspiro[4.5]decan-3-ylamino)-2-hydroxypropoxy)-N-methylbenzenesulfonamide], the IC50 worked out at 4.89 nM.
